What all share (assay type): physicochemical
The nature of series [1]: Degradation to lanthanum hydroxycarbonate at room temperature / standard ambient conditions.
A short description of series [2]: Thermal and moisture stress study of lanthanum carbonate/excipient mixtures, decarboxylation to lanthanum hydroxycarbonate (HC) monitored by XRPD. On the procedure:
Excipient compatibility studies of hydrated lanthanum carbonate having a water content approximately equivalent to 4-5 moles of water and anhydrous lanthanum carbonate were performed to determine whether different classes of saccharide excipients would retard or prevent the appearance of decarboxylation products in thermally- and moisture-stressed solid lanthanum carbonate mixtures.
Conditions which would cause the formation of decarboxylation products in substantially pure hydrated lanthanum carbonate within one week were used. Mixtures of 1:1 or 96:4 (by weight) of hydrated lanthanum carbonate and a test excipient or 1:1 (by weight) anhydrous lanthanum carbonate and a test excipient were prepared and stressed, and samples were analyzed by XRPD (X-ray powder diffraction) as a function of exposure time.
Weighed samples of hydrated lanthanum carbonate/excipient (1:1 or 96:4 by weight) or anhydrous lanthanum carbonate/excipient (1:1 by weight) were sealed into scintillation vials and placed onto a Turbula mixer. Samples were mixed for ten minutes to ensure sample homogeneity.
Saturated salt solutions of Na2SO4.10H2O (˜95% RH (relative humidity)) or NaNO3 (65% RH) were prepared and placed into sealed chambers. The chambers were placed into a 60° C. oven overnight and the presence of solids was confirmed after 24 hours. These chambers were then subsequently used for the stressing studies of the various excipient/lanthanum carbonate mixtures. The lower humidity conditions were utilized for the D-sorbitol and dextrates excipients because they deliquesce under the more extreme conditions of 60° C./95% RH.
XRPD analyses were performed using a Shimadzu XRD-6000 X-ray powder diffractometer using Cu Kα radiation. […]
At the experimental onset, the hydrated lanthanum carbonate was stressed under two conditions, 60° C./95% RH and 60° C./65% RH, in order to establish a baseline for monitoring decarboxylation. Individual samples were pulled after 1, 2, 3, 4, and 7 days and immediately analyzed by XRPD. […]

A short description of series [3]: Decarboxylation of hydrated lanthanum carbonate at standard ICH stability conditions, lanthanum hydroxycarbonate content by XRPD. To be noted: 25° C./60% RH, 30° C./60% RH and 40° C./75% RH, up to 2 years. On the procedure:
Unformulated hydrated lanthanum carbonate and formulated hydrated lanthanum carbonate tablets containing approximately 50% (by weight) dextrates were exposed to the standard ICH stability conditions of 25° C./60% RH, 30° C./60% RH and 40° C./75% RH for a period up to 2 years. Samples were removed periodically over this time and tested for their lanthanum hydroxycarbonate content using x-ray powder diffraction.

Two compounds from patent publication US7381428B2, “Stabilized lanthanum carbonate compositions” (Shire International Licensing B.V., priority 2003, dated 2008) can be followed below.

For `O=C([O-])[O-].O=C([O-])[O-].O=C([O-])[O-].[La+3].[La+3]` [substantially pure lanthanum carbonate, La2(CO3)3.xH2O], in series [1], the “time within which degradation to lanthanum hydroxycarbonate occurs” value was 9-12 months. Besides, the “time after which decarboxylation product HC was initially seen (XRPD)” value in series [2] (60° C./95% RH) came out at 1 days.
On to hydrated lanthanum carbonate, for which the “degradation (decarboxylation) to lanthanum hydroxycarbonate” value in series [3] is on record as “significant degradation”. Also, the results for the “time after which decarboxylation product HC was initially seen (XRPD)” value in series [2] (60° C./65% RH) and in series [2] (60° C./95% RH) were “single” and “one”, respectively.
